Like-named read-outs stand apart in the source and are kept apart here.

One may read the IC50 as the concentration that gives 50% inhibition.

Assay in all cases: cells
One experiment has as its system COS-7. Format: cell-based, African green monkey. The conditions noted are these: Chlorocebus sabaeus.
In the next experiment the test system is NB4. The format is cell-based. The conditions noted are these: Homo sapiens.
A further experiment concerns 4T1. The format is cell-based. The conditions noted are these: Mus musculus.
The next experiment relates to PBMC. Format: cell-based, rat. The conditions noted are these: Rattus norvegicus, PBMC.
The test system of another experiment is Molm-13. Format: cell-based. The conditions noted are these: Homo sapiens.
The test system of another experiment is HeLa. The format is cell-based, human. The conditions noted are these: Homo sapiens, HeLa.
Setting [1] is: COS-7, 24 h, read-out: IC50 COS-7 24 h.
Where [2] appears, read: COS-7, 48 h, read-out: IC50 COS-7 48 h.
Where [3] appears, read: NB-4, 24 h, read-out: IC50 NB4 24 h.
[4] abbreviates: NB-4, 48 h, read-out: IC50 NB4 48 h.
Where [5] appears, read: 4T1, 24 h, read-out: IC50 4T1 24 h.
Where [6] appears, read: 4T1, 48 h, read-out: IC50 4T1 48 h.
Setting [7] is: MOLM-13, 24 h, read-out: IC50 Molm 24 h.
Where [8] appears, read: MOLM-13, 48 h, read-out: IC50 Molm 48 h.
Setting [9] is: MOLM-13, 24 h, read-out: IC50 Molm.
[10] abbreviates: MOLM-13, 48 h, read-out: IC50 Molm.

As for `COc1ccc(C(=O)Nc2ccc([As]3SCCCS3)cc2)cc1OC` [DAZ2, N-(4-(1,3,2-dithiarsinan-2-yl)phenyl)-3,4-dimethoxybenzamide], the IC50 with COS-7 (setting [1]) amounted to 7100 nM; in the experiment with COS-7 (setting [2]) it was 3300 nM; in the experiment on NB4 (setting [3]), 1710 nM; with NB4 (setting [4]), 1140 nM; in the experiment on 4T1 (setting [5]), 1500 nM; with 4T1 (setting [6]), 1200 nM. In addition, the IC50 in the experiment with PBMC (24 h, read-out: IC50 PBMC 24 h) stood at 6200 nM; in the experiment with PBMC (48 h, read-out: IC50 PBMC 48 h), 5700 nM; in the experiment with Molm-13 (setting [7]), 900 nM; with Molm-13 (setting [8]), 750 nM; in the experiment with HeLa (24 h, read-out: IC50 HeLa 24 h) it was 2300 nM; in the experiment with HeLa (48 h, read-out: IC50 HeLa 48 h), 1060 nM.

As for `COc1ccc(C(=O)Nc2ccccc2[As]2SCCCS2)cc1OC` [DAZ5, N-(2-(1,3,2-dithiarsinan-2-yl)phenyl)-3,4-dimethoxybenzamide], the IC50 with COS-7 (setting [1]) amounted to 1610 nM; in the experiment on COS-7 (setting [2]), 1270 nM; in the experiment with NB4 (setting [3]), 800 nM; with NB4 (setting [4]), 510 nM; with 4T1 (setting [5]) it was 600 nM; in the experiment with 4T1 (setting [6]), 500 nM. Further, the IC50 came to 4100 nM with PBMC (24 h, read-out: IC50 PBMC 24 h); 3500 nM in the experiment on PBMC (48 h, read-out: IC50 PBMC 48 h); 450 nM in the experiment with Molm-13 (setting [7]); 320 nM with Molm-13 (setting [8]); 810 nM in the experiment with HeLa (24 h, read-out: IC50 HeLa 24 h); 550 nM in the experiment with HeLa (48 h, read-out: IC50 HeLa 48 h).

With `O=C(Nc1ccc([As]2SCCCS2)cc1)c1ccc2c(c1)OCO2` [PZ2, N-(4-(1,3,2-dithiarsinan-2-yl)phenyl)benzo[d][1,3]dioxole-5-carboxamide], the half-maximal inhibitory concentration (IC50) turned out to be 4100 nM in the experiment with COS-7 (setting [1]); 1750 nM with COS-7 (setting [2]); 850 ± 100 nM in the experiment with NB4 (NB-4, 24 h, read-out: IC50 NB4); 700 nM with NB4 (setting [3]); 440 nM in the experiment with NB4 (setting [4]); 2550 ± 220 nM with 4T1 (4T1, 24 h, read-out: IC50 4T1). The IC50 in the experiment with 4T1 (setting [5]) was 2600 nM; with 4T1 (4T1, 48 h, read-out: IC50 4T1), 3350 ± 420 nM; in the experiment with 4T1 (setting [6]), 3400 nM; in the experiment on PBMC (24 h, read-out: IC50 PBMC 24 h), 6400 nM; in the experiment on PBMC (48 h, read-out: IC50 PBMC 48 h), 5300 nM; with Molm-13 (setting [7]) it was 1060 nM. Also, the IC50 is 750 nM in the experiment on Molm-13 (setting [8]); 700 nM in the experiment with HeLa (24 h, read-out: IC50 HeLa 24 h); 440 nM in the experiment on HeLa (48 h, read-out: IC50 HeLa 48 h).

Consider `O=C(Nc1ccc([As]2SCCCS2)cc1)c1ccc(F)cc1` [FZ2, N-(4-(1,3,2-dithiarsinan-2-yl)phenyl)-4-fluorobenzamide], for which the IC50 in the experiment with COS-7 (setting [1]) amounted to 3500 nM; in the experiment with COS-7 (setting [2]), 2200 nM; with NB4 (setting [3]) it was 400 nM; with NB4 (setting [4]), 300 nM; in the experiment on 4T1 (setting [5]), 2300 nM; in the experiment with 4T1 (setting [6]), 2200 nM. Further, the IC50 with PBMC (24 h, read-out: IC50 PBMC 24 h) came out at 5500 nM; in the experiment on PBMC (48 h, read-out: IC50 PBMC 48 h), 4700 nM; in the experiment with Molm-13 (setting [7]) it was 1200 nM; with Molm-13 (setting [8]), 1000 nM; in the experiment on HeLa (24 h, read-out: IC50 HeLa 24 h) it was 1200 nM; in the experiment on HeLa (48 h, read-out: IC50 HeLa 48 h), 400 nM.

As to `COc1cc(C(=O)Nc2ccccc2[As]2SCCCS2)cc(OC)c1OC` [TAZ5, N-(2-(1,3,2-dithiarsinan-2-yl)phenyl)-3,4,5-trimethoxybenzamide], the IC50 amounted to 2000 nM in the experiment with COS-7 (setting [1]); 1800 nM in the experiment with COS-7 (setting [2]); 200 nM in the experiment with NB4 (setting [3]); 150 nM with NB4 (setting [4]); 700 ± 30 nM in the experiment with 4T1 (4T1, 24 h, read-out: IC50 4T1); 700 nM in the experiment on 4T1 (setting [5]). For the same molecule, the IC50 in the experiment with 4T1 (4T1, 48 h, read-out: IC50 4T1) amounted to 700 ± 30 nM; in the experiment on 4T1 (setting [6]), 700 nM; in the experiment with PBMC (24 h, read-out: IC50 PBMC 24 h), 2200 nM; in the experiment with PBMC (48 h, read-out: IC50 PBMC 48 h) it was 1540 nM; with Molm-13 (setting [7]), 710 nM; with Molm-13 (setting [8]), 700 nM. The IC50 with HeLa (24 h, read-out: IC50 HeLa 24 h) worked out at 800 nM; in the experiment on HeLa (48 h, read-out: IC50 HeLa 48 h), 500 nM.

For the molecule `CC(=O)Oc1ccc(C(=O)Nc2ccc([As]3SCCCS3)cc2)cc1` [AZ2, 4-((4-(1,3,2-dithiarsinan-2-yl)phenyl)carbamoyl)phenyl acetate], the IC50 was 2200 nM in the experiment on COS-7 (setting [1]); 2100 nM with COS-7 (setting [2]); 600 ± 50 nM in the experiment with NB4 (NB-4, 24 h, read-out: IC50 NB4); 600 nM in the experiment with NB4 (setting [3]); 600 ± 30 nM in the experiment with NB4 (NB-4, 48 h, read-out: IC50 NB4); 600 nM in the experiment on NB4 (setting [4]). Besides, the IC50 in the experiment with 4T1 (setting [5]) is 2000 nM; in the experiment on 4T1 (setting [6]), 1000 nM; in the experiment with PBMC (24 h, read-out: IC50 PBMC 24 h), 5200 nM; in the experiment with PBMC (48 h, read-out: IC50 PBMC 48 h), 4900 nM; in the experiment on Molm-13 (setting [9]), 1110 ± 100 nM; in the experiment on Molm-13 (setting [7]), 1100 nM. Moreover, the IC50 came to 1010 ± 20 nM with Molm-13 (setting [10]); 1000 nM in the experiment on Molm-13 (setting [8]); 800 nM in the experiment with HeLa (24 h, read-out: IC50 HeLa 24 h); 500 nM with HeLa (48 h, read-out: IC50 HeLa 48 h).

For `COc1cc(C(=O)Nc2ccc([As]3SCCCS3)cc2)cc(OC)c1O` [HDZ2, N-(4-(1,3,2-dithiarsinan-2-yl)phenyl)-4-hydroxy-3,5-dimethoxybenzamide], the IC50 with COS-7 (setting [1]) is 9100 nM; in the experiment on COS-7 (setting [2]), 3500 nM; in the experiment with NB4 (setting [3]), 800 nM; in the experiment on NB4 (setting [4]), 500 nM; with 4T1 (setting [5]), 1000 nM; with 4T1 (setting [6]), 1010 nM. Also, the IC50 with PBMC (24 h, read-out: IC50 PBMC 24 h) worked out at 5800 nM; in the experiment with PBMC (48 h, read-out: IC50 PBMC 48 h) it was 4900 nM; in the experiment on Molm-13 (setting [9]), 600 ± 120 nM; in the experiment on Molm-13 (setting [7]) it was 600 nM; in the experiment on Molm-13 (setting [10]) it was 600 ± 120 nM; in the experiment on Molm-13 (setting [8]), 600 nM. The IC50 with HeLa (24 h, read-out: IC50 HeLa 24 h) came to 2000 nM; with HeLa (48 h, read-out: IC50 HeLa 48 h), 1010 nM.

(Values after article PMC9266561, “1,3-Benzodioxole Derivatives Improve the Anti-Tumor Efficiency of Arsenicals” (International Journal of Molecular Sciences, 2022).)
